Measurements reported in patent US8481297B2 (priority 2009, dated 2013).
Read-outs that look alike come from different tables or passages of the source.

Tested on: U-373MG cells
Type: cell-based, human

Molecule | effect on the difference in plaque size between VSV-rp30 and VSV-G/GFP (10 μM, 24 hrs) | effect on the difference in plaque size between VSV-rp30 and VSV-G/GFP
O=c1c(-c2ccc(O)cc2)coc2cc(O)cc(O)c12 [Genistein, genistein] | significantly attenuated the difference in plaque size | 
CN[C@@H]1C[C@H]2O[C@@](C)([C@@H]1OC)n1c3ccccc3c3c4c(c5c6ccccc6n2c5c31)C(=O)NC4 [Staurosporine, staurosporine] |  | significant attenuation of the difference in plaque size
tyrphostin 51 |  | no significant effect on the difference in plaque size
